{
  "source": "patent US8828401B2",
  "about": "“Cytotoxic peptides and antibody drug conjugates thereof” (Pfizer Inc., priority 2011, dated 2014)",
  "molecules": {"B1": {"name": "ch75-vc0101: rat-human chimeric anti-Notch antibody ch75 conjugated to mcValCitPABC-#54 (conjugate)", "VH": "QVKLLQSGAALVKPGASVKMSCKASGYAFTDYWVTWVKQSHGKSLEWIGEISPNSGGTNFNEKFKGKATLTVDKSTSTAYMELSRLTSEDSAIYYCTRGEIRYNWFAYWGQGTLVTVSS", "VL": "DIQMTQSPSSLSASVGDRVTITCKASQNVGNNIAWYQQKPGKAPKLLIYYASNRYTGVPSRFSGSGYGTDFTLTISSLQPEDFATYYCQRLYNSPFTFGGGTKVEIK"}, "B2": {"name": "ch75-vc6780 (conjugate)", "VH": "B1 VH", "VL": "B1 VL"}, "B3": {"name": "ch28-me0131 (conjugate)", "VH": "EVQLVESGGGLVQPGRSLTLSCVASGFTFRDYGMTWIRQAPGKGLTWVAYISSGSNYIYYAEAVKGRFTISRDNAKNTLYLQMTSLRSEDTALYFCTRRGPFVLDAWGQGASVTVSS", "VL": "DIQMTQSPSFLSASVGDRVTINCKASQSINRYLHWFQQKLGEAPKLLIYNANGLQTGIPSRFSGSGSGTDFTLTISSLQSEDVATYFCLQHNTWPDTFGAGTKLELK"}, "B4": {"name": "ch28-vc6780 (conjugate)", "VH": "B3 VH", "VL": "B3 VL"}, "B5": {"name": "ch28-vc0101: rat-human chimeric anti-Notch antibody ch28 conjugated to mcValCitPABC-#54 (conjugate)", "VH": "B3 VH", "VL": "B3 VL"}},
  "key": {"37622A1 NSCLC xenografts": {"tested_on": "37622A1 NSCLC xenografts", "assay": "37622A1 NSCLC patient-derived xenografts with anti-Notch ADCs", "format": "in vivo, nude (Nu/Nu) female mice", "conditions": "5 mg/kg Q4dx4", "procedure": "(§1) Humanized anti-Notch antibodies, hu28 and hu75, and rat-human chimeric anti-Notch antibodies, ch28 and ch75, were conjugated to various linker-payload combinations and tested in 37622A1 non-small cell lung cancer (NSCLC), HCC2429 lung cancer, MDA-MB-468 breast cancer and N87 gastric cancer xenograft models. For each model described below the first dose was given on Day 0. The tumors were measured at least once a week and their volume was calculated with the formula: tumor volume (mm^3)=0.5×(tumor width^2)(tumor length). The mean tumor volumes (±S.E.M.) for each treatment group were calculated having a maximum of 10 animals and a minimum of 6 animals to be included.\nThe effects of anti-Notch ADCs were examined in immunodeficient mice on the in vivo growth of human tumor xenografts that were established from fragments of freshly resected 37622A1 NSCLC tumors obtained in accordance with appropriate consent procedures (Asterand). The 37622A1 NSCLC patient-derived xenografts were subcutaneously passaged in vivo as fragments from animal to animal in nude (Nu/Nu) female mice. When the tumors reached a volume of 150 to 300 mm^3, they were staged to ensure uniformity of the tumor size among various treatment groups. The 37622A1 NSCLC model was dosed intraveneously four times every four days (Q4dx4) with PBS vehicle, humanized anti-Notch ADCs, control huNeg-8.8 ADCs and cisplatin at the doses provided in Table 11."}, "N87 gastric xenografts": {"tested_on": "N87 gastric xenografts", "assay": "N87 gastric xenografts with anti-Notch ADCs", "format": "in vivo, nude (Nu/Nu) female mice", "conditions": "Dose 5 mg/kg Q4dx4 iv", "procedure": "as §1\nSimilar in vivo experiments were performed with the N87 gastric cancer cell line as described above. […] When the tumors reached a volume of 250 to 450 mm^3, the tumors were staged to ensure uniformity of the tumor mass among various treatment groups. The N87 gastric model was dosed intraveneously Q4dx4 with PBS vehicle, humanized anti-Notch ADCs, control huNeg-8.8 ADCs and cisplatin at the doses provided in Tables 16 and 17."}, "MDA-MB-468/hNotch": {"tested_on": "MDA-MB-468/hNotch", "assay": "In vitro cytotoxicity assay with anti-Notch ADCs (MTS)", "format": "cell-based", "conditions": "average of 2-4 repeats where ± S.E.M. is given", "procedure": "(§2) The effects of anti-Notch ADCs were assessed on 1) cell lines endogenously expressing Notch protein: HCC2429 (lung cancer), OVCAR3 (ovarian cancer) and MDA-MB-468 (breast cancer), 2) cell lines engineered to over-express Notch protein: MDA-MB-468/hNotch and U2OS/hNotch, and 3) a negative control cell line (SW900) using an MTS cellular viability indicator (Promega, Madison, Wis.). These cell lines were cultured with increasing concentrations of anti-Notch ADCs comprising humanized anti-Notch antibodies, hu28 and hu75, and rat-human chimeric anti-Notch antibodies, ch28 and ch75, conjugated to various linker-payload combinations of the present invention. As a specificity control for the anti-Notch-ADCs, non-targeted control-ADCs (huNeg8.8-ADCs or ch2H6-ADCs) were also tested on the same cell lines. After four days, viability of each culture was assessed. IC50 values were calculated by logistic non-linear regression and presented as ng Ab/mL. The drug antibody ratio (DAR) is also provided."}, "[1]": {"tested_on": "MDA-MB-468 (breast cancer)", "assay": "In vitro cytotoxicity assay with anti-Notch ADCs (MTS)", "format": "cell-based", "conditions": "average of 2-4 repeats where ± S.E.M. is given", "procedure": "as §2"}, "HCC2429 (lung cancer)": {"tested_on": "HCC2429 (lung cancer)", "assay": "In vitro cytotoxicity assay with anti-Notch ADCs (MTS)", "format": "cell-based", "conditions": "average of 2-4 repeats where ± S.E.M. is given", "procedure": "as §2"}, "OVCAR3 (ovarian cancer)": {"tested_on": "OVCAR3 (ovarian cancer)", "assay": "In vitro cytotoxicity assay with anti-Notch ADCs (MTS)", "format": "cell-based", "conditions": "average of 2-4 repeats where ± S.E.M. is given", "procedure": "as §2"}, "U2OS/hNotch": {"tested_on": "U2OS/hNotch", "assay": "In vitro cytotoxicity assay with anti-Notch ADCs (MTS)", "format": "cell-based", "conditions": "average of 2-4 repeats where ± S.E.M. is given", "procedure": "as §2"}},
  "data": [
    {"molecule": "N.N.[Cl][Pt][Cl]", "note": "[Cisplatin, reference compound]", "values": [
      {"measurement": "tumor volume (mm^3 ± SEM)", "setting": "37622A1 NSCLC xenografts; DAY 4", "result": "226 ± 15", "unit": "mm^3"},
      {"measurement": "tumor volume (mm^3 ± SEM)", "setting": "37622A1 NSCLC xenografts; DAY 7", "result": "280 ± 29", "unit": "mm^3"},
      {"measurement": "tumor volume (mm^3 ± SEM)", "setting": "37622A1 NSCLC xenografts; DAY 11", "result": "301 ± 34", "unit": "mm^3"},
      {"measurement": "tumor volume (mm^3 ± SEM)", "setting": "37622A1 NSCLC xenografts; DAY 14", "result": "345 ± 47", "unit": "mm^3"},
      {"measurement": "tumor volume (mm^3 ± SEM)", "setting": "37622A1 NSCLC xenografts; DAY 18", "result": "309 ± 37", "unit": "mm^3"},
      {"measurement": "tumor volume (mm^3 ± SEM)", "setting": "37622A1 NSCLC xenografts; DAY 21", "result": "373 ± 50", "unit": "mm^3"},
      {"measurement": "tumor volume (mm^3 ± SEM)", "setting": "37622A1 NSCLC xenografts; DAY 25", "result": "401 ± 58", "unit": "mm^3"},
      {"measurement": "tumor volume (mm^3 ± SEM)", "setting": "37622A1 NSCLC xenografts; DAY 28", "result": "446 ± 64", "unit": "mm^3"},
      {"measurement": "tumor volume (mm^3 ± SEM)", "setting": "37622A1 NSCLC xenografts; DAY 32", "result": "482 ± 62", "unit": "mm^3"},
      {"measurement": "tumor volume (mm^3 ± SEM)", "setting": "37622A1 NSCLC xenografts; DAY 35", "result": "587 ± 80", "unit": "mm^3"},
      {"measurement": "tumor volume (mm^3 ± SEM)", "setting": "37622A1 NSCLC xenografts; DAY 39", "result": "591 ± 83", "unit": "mm^3"},
      {"measurement": "tumor volume (mm^3 ± SEM)", "setting": "37622A1 NSCLC xenografts; DAY 42", "result": "612 ± 92", "unit": "mm^3"},
      {"measurement": "tumor volume (mm^3 ± SEM)", "setting": "37622A1 NSCLC xenografts; DAY 46", "result": "723 ± 119", "unit": "mm^3"},
      {"measurement": "tumor volume (mm^3 ± SEM)", "setting": "37622A1 NSCLC xenografts; DAY 49", "result": "853 ± 139", "unit": "mm^3"},
      {"measurement": "tumor volume (mm^3 ± SEM)", "setting": "37622A1 NSCLC xenografts; DAY 53", "result": "970 ± 193", "unit": "mm^3"},
      {"measurement": "tumor volume (mm^3 ± SEM)", "setting": "37622A1 NSCLC xenografts; DAY 56", "result": "1215 ± 231", "unit": "mm^3"},
      {"measurement": "tumor volume (mm^3 ± SEM)", "setting": "37622A1 NSCLC xenografts; DAY 60", "result": "1428 ± 273", "unit": "mm^3"},
      {"measurement": "tumor volume (mm^3 ± SEM)", "setting": "37622A1 NSCLC xenografts; DAY −1", "result": "185 ± 11", "unit": "mm^3"},
      {"measurement": "tumor volume (mm^3 ± SEM)", "setting": "N87 gastric xenografts; DAY 0", "result": "328 ± 20", "unit": "mm^3"},
      {"measurement": "tumor volume (mm^3 ± SEM)", "setting": "N87 gastric xenografts; DAY 4", "result": "414 ± 27", "unit": "mm^3"},
      {"measurement": "tumor volume (mm^3 ± SEM)", "setting": "N87 gastric xenografts; DAY 7", "result": "520 ± 26", "unit": "mm^3"},
      {"measurement": "tumor volume (mm^3 ± SEM)", "setting": "N87 gastric xenografts; DAY 11", "result": "501 ± 29", "unit": "mm^3"},
      {"measurement": "tumor volume (mm^3 ± SEM)", "setting": "N87 gastric xenografts; DAY 14", "result": "637 ± 31", "unit": "mm^3"}
    ]},
    {"molecule": "B1", "values": [
      {"measurement": "IC50 (ng Ab/mL) ± S.E.M.", "setting": "MDA-MB-468/hNotch", "result": "24 ± 4.0", "unit": "ng Ab/mL"},
      {"measurement": "IC50 (ng Ab/mL) ± S.E.M.", "setting": "[1]", "result": "4064 ± 1793.9", "unit": "ng Ab/mL"},
      {"measurement": "IC50 (ng Ab/mL) ± S.E.M.", "setting": "HCC2429 (lung cancer)", "result": "2112 ± 826.0", "unit": "ng Ab/mL"}
    ]},
    {"molecule": "B2", "values": [
      {"measurement": "IC50 (ng Ab/mL) ± S.E.M.", "setting": "OVCAR3 (ovarian cancer)", "result": 922, "unit": "ng Ab/mL"},
      {"measurement": "IC50 (ng Ab/mL) ± S.E.M.", "setting": "MDA-MB-468/hNotch", "result": "21 ± 3.5", "unit": "ng Ab/mL"},
      {"measurement": "IC50 (ng Ab/mL) ± S.E.M.", "setting": "[1]", "result": "6873 ± 4230.0", "unit": "ng Ab/mL"},
      {"measurement": "IC50 (ng Ab/mL) ± S.E.M.", "setting": "HCC2429 (lung cancer)", "result": "1004 ± 177.0", "unit": "ng Ab/mL"}
    ]},
    {"molecule": "B3", "values": [
      {"measurement": "IC50 (ng Ab/mL) ± S.E.M.", "setting": "OVCAR3 (ovarian cancer)", "result": "8 ± 2.0", "unit": "ng Ab/mL"},
      {"measurement": "IC50 (ng Ab/mL) ± S.E.M.", "setting": "[1]", "result": "24 ± 14.0", "unit": "ng Ab/mL"},
      {"measurement": "IC50 (ng Ab/mL) ± S.E.M.", "setting": "HCC2429 (lung cancer)", "result": 30, "unit": "ng Ab/mL"},
      {"measurement": "IC50 (ng Ab/mL) ± S.E.M.", "setting": "U2OS/hNotch", "result": "3 ± 1.15", "unit": "ng Ab/mL"}
    ]},
    {"molecule": "B4", "values": [
      {"measurement": "IC50 (ng Ab/mL) ± S.E.M.", "setting": "OVCAR3 (ovarian cancer)", "result": "90 ± 48.5", "unit": "ng Ab/mL"},
      {"measurement": "IC50 (ng Ab/mL) ± S.E.M.", "setting": "MDA-MB-468/hNotch", "result": "3 ± 0.5", "unit": "ng Ab/mL"},
      {"measurement": "IC50 (ng Ab/mL) ± S.E.M.", "setting": "[1]", "result": "4407 ± 2128.2", "unit": "ng Ab/mL"},
      {"measurement": "IC50 (ng Ab/mL) ± S.E.M.", "setting": "HCC2429 (lung cancer)", "result": "324 ± 78.9", "unit": "ng Ab/mL"}
    ]},
    {"molecule": "B5", "values": [
      {"measurement": "IC50 (ng Ab/mL) ± S.E.M.", "setting": "OVCAR3 (ovarian cancer)", "result": 635, "unit": "ng Ab/mL"},
      {"measurement": "IC50 (ng Ab/mL) ± S.E.M.", "setting": "MDA-MB-468/hNotch", "result": "4 ± 0.5", "unit": "ng Ab/mL"},
      {"measurement": "IC50 (ng Ab/mL) ± S.E.M.", "setting": "[1]", "result": "5443 ± 2630.9", "unit": "ng Ab/mL"},
      {"measurement": "IC50 (ng Ab/mL) ± S.E.M.", "setting": "HCC2429 (lung cancer)", "result": "3230 ± 1116.5", "unit": "ng Ab/mL"},
      {"measurement": "IC50 (ng Ab/mL) ± S.E.M.", "setting": "U2OS/hNotch", "result": "95 ± 18.2", "unit": "ng Ab/mL"}
    ]}
  ]
}
